Experimental data as given in patent publication US20260018245A1, “SYSTEMS AND METHODS FOR IDENTIFYING AND TARGETING COLLATERAL LETHAL GENES” (The Regents of the University of Michigan, priority 2022, published 2026).

Key:
[1] = system: UQCR11-null HeyA8 cells; experiment: Resistance to MTHFD2 inhibition upon AOX expression or UQCR11 overexpression; format: cell-based; conditions: 72 h
Source text: FIG. 11 Investigating alternative metabolic pathways to rescue UQCR11-null cells from collateral lethal targeting of MTHFD2. (a) Correlation between NDUFS7 mRNA expression and copy-number alterations of the 19p13.3 locus, represented by UQCR11 copy-number in TCGA OVCA dataset (n=303). Correlations estimated using Spearman's rank correlation test. (b) Gene expression of NDUFS7 measured via qRT-PCR in UQCR11-null lines (OVCAR8, CAOV3, HeyA8) relative to NDUFS7 expression in UQCR11-intact line (SKOV3). Data representative of two independent experiments presented as mean±s.d. (n=5), analyzed using ordinary one-way ANOVA with Dunnett's correction for multiple comparisons. (c) Doseresponse curve for single-agent inhibition in SKOV3 cells by either Complex I inhibitor, rotenone, or MTHFD2 inhibitor. […] Data are representative of two independent experiments and presented as mean±s.e.m (n=3) and analyzed using two-tailed Welch's t-test. […] Viability decrease was measured 72 h after inhibitor treatment relative to vehicle control. […] (n=6) and analyzed using ordinary 2-way ANOVA with Sidak's correction for multiple comparisons. […] (n=4) and analyzed using two-tailed Welch's t-test. […] Viability decrease was measured 72 h after inhibitor treatment relative to vehicle control. […] (n=5) and analyzed using two-tailed Welch's t-test.

[2] = system: SKOV3 and OVCAR8 cells; experiment: MTHFD2 inhibitor in cells with NNT, IDH2 or IDH3A knocked down; format: cell-based; conditions: IDH2 or IDH3A knockdown, UQCR11-intact or -null cells, 10 μM, 72 h
Method: FIG. 15 Investigating metabolic consequence of Complex III impairment and activity of paralogous pathways other than oxidative MTHFD2. (a) Effect of MTHFD2 inhibitor ([…]) and uridine (50 μM) supplementation on viability of parental ovarian cancer lines that are UQCR11—intact (SKOV3) or UQCR11-null (HeyA8, OVCAR8, CAOV3). Data are representative of two independent experiments and presented as mean±s.d. (n=6). Data analyzed with one-way ANOVA with Tukey's correction for multiple comparisons. (b) Effect of MTHFD2 inhibitor and uridine supplementation on viability of isogenic SKOV3 lines expressing shScramble or shUQCR11. […] Data analyzed with one-way ANOVA with Tukey's correction for multiple comparisons. […] (n=6) and analyzed using two-tailed Student's t-test. (d) mRNA expression of NNT, IDH2, IDH3A measured via qRT-PCR after knocking down with shNNT, shIDH2, and shIDH3A, relative to scramble shRNA (shScr), verifying knockdown efficiency in SKOV3 and OVCAR8 cell-lines. […] Data analyzed using unpaired two-tailed Student's t-test. […] Data are analyzed using ordinary one-way ANOVA with multiple comparisons. […] Loss of viability calculated by comparing respective viability in vehicle control-treated cells to MTHFD2 inhibitor-treated cells. […] (n=6) and analyzed using ordinary one-way ANOVA with Dunnett's correction for multiple comparisons. Error bars are calculated using propagation of error principles.

Cc1c(N2CCN(C)[C@@H](C)C2)ccc2c3c(c(=O)oc12)CN(C(=O)c1ccc(NS(C)(=O)=O)c(OC(F)(F)F)c1)CC3 [DS18561882]
rescue from MTHFD2 inhibitor-mediated cell death ([1]; HeyA8 ectopically expressing alternative oxidase AOX): partially rescued
rescue from MTHFD2 inhibitor-mediated cell death ([1]; HeyA8 overexpressing UQCR11): partially rescued
effect of MTHFD2 inhibition on viability [2]: not influenced
